Six molecules from patent US20040023884A1, “Biologically active peptides from functional domains of bactericidal/permeability-increasing protein and uses thereof” (priority 1993, published 2004) can be followed below.

Test [1] is described as follows: Heparin binding by tryptophan fluorescence quenching. The source says: (§1) The naturally-occurring amino acid tryptophan can emit light (i.e., it fluoresces) having a wavelength between 300 and 400 nm after excitation with light having a wavelength of between about 280 nm and 290 nm, preferably 285 nm. The amount of emitted light produced by such fluorescence is known to be affected by the local environment, including pH and buffer conditions, as well as binding interactions between proteins and other molecules. Some BPI functional domain peptides derived from domains II and III contain tryptophan residues, and tryptophan fluorescence was used to assay binding interactions between the BPI functional domain peptides of the invention and LPS or heparin.
(§2) Tryptophan fluorescence of the BPI functional domain peptides of the invention was determined in the presence or absence of LPS or heparin using a SPEX Fluorolog fluorimeter. Samples were excited with 285 nm light using a 0.25 nm slitwidth. Emission wavelengths were scanned between 300-400 nm using a 1.25 nm slitwidth. Data were accumulated as the average of three determinations performed over an approximately 5 min time span. Samples were maintained at 25° C. or 37° C. during the course of the experiments using a circulating water bath. Crab endotoxin binding protein (CEBP), a protein wherein the intrinsic fluorescence of tryptophan residues is affected by binding to LPS, was used as a positive control. (See Wainwright et al., 1990, Cellular and Molecular Aspects of Endotoxin Reactions, Nowotny et al., eds., Elsevier Science Publishing B.V., The Netherlands, pp. 315-325).
(§3) Kd values were determined by Scatchard-type Stern-Volmer plots of the quenching data as the negative inverse of the slope of such plots. Comparing the data for BPI.10, BPI.46 and BPI.47, it is seen that as the Kd decreased (indicating an increase in avidity for LPS), the percent fluorescence quenching increased. The differences between these peptides include replacement of basic and polar amino acid residues with non-polar residues in […] as compared with BPI.10. In contrast, as the Kd of heparin binding decreased, a corresponding increase in the percentage of fluorescence quenching was not detected.

Test [2] is described as follows: LPS binding by tryptophan fluorescence quenching.
From the text: as §1, §2, §3

Test [3] can be described thus: 3H-heparin binding assay (affinity and capacity). To be noted: for Heparin Capacity: heparin bound at saturation; for Kd: read-out: Heparin Affinity. In a few lines:
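Peptide fragments were bound to PVDF-membrane wells and incubated with 3H-heparin in blocking buffer for 1 h at 4 °C. After washing, bound radioactivity was quantified by liquid scintillation counting, with BSA background subtracted; rBPI23 served as positive control.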

Test [4] relates to zymosan-stimulated NO production by RAW 264.7 cells. The test can be described thus: Zymosan-stimulated NO production by RAW 264.7 cells. The format is cell-based, mouse. The method, then:
(§4) An additional LPS neutralization screening assay for BPI functional domain peptides was developed using an assay for NO production in mouse cells treated with LPS (see Lorsbach et al., 1993, J. Biol. Chem. 268: 1908-1913). In this assay, mouse RAW 264.7 cells (ATCC Accession No. TIB71) were treated with bacterial LPS. The cells were incubated in 96-well plates and stimulated for 2 hours with E. coli 0113 LPS or zymosan, in the presence or absence of _-interferon, rLBP, fetal bovine serum (FBS) or normal human serum (NHS), or rBPI21Δcys. After this incubation, the cells were washed with fresh media and incubated overnight in media containing 10% FCS. The NO released from the cells accumulated in the media and spontaneously converted to nitrite. This nitrite was assayed in situ by the Griess reaction, as follows. The nitrite was reacted with the primary amine of an added sulfanilamide and formed a diazonium salt. This salt was then reacted with added naphthylethylenediamine to form a red azo-dyc. The Griess reaction was performed at room temperature in about 10 minutes. The amount of produced NO was estimated from a standard curve of Griess reaction products determined spectrophotometrically as Absorbance at a wavelength of 550 nm.

The test system of test [5] is E. coli 0111:B4 (smooth) bacteria. The test can be described thus: Radial diffusion bactericidal assay, E. coli 0111:B4. To be noted: radial diffusion; PROBIT analysis; E. coli O111:B4 (smooth). The format is cell-based.
For test [6], the system named is Staphylococcus aureus. Kind of test: Radial diffusion bactericidal assay, Staphylococcus aureus. The format is cell-based. To be noted: radial diffusion; PROBIT analysis; S. aureus.
Test [7] relates to rough mutant E. coli J5 bacteria. Kind of test: Radial diffusion bactericidal assay, E. coli J5. The format is cell-based. To be noted: radial diffusion; for bactericidal activity (in words): E. coli J5; for pmol added to well to achieve a 30 mm^2 bactericidal zone, E. coli J5: PROBIT analysis, E. coli J5 (rough). The method in brief:
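Log-phase bacteria, washed in 10 mM sodium phosphate pH 7.4, were seeded at 4×10^6 CFU/mL in underlayer agarose. BPI fragments (5 or 10 μL) went into 3 mm wells for 3 h at 37° C., then overlayer agarose was added. After overnight 37° C. incubation, clearing zones were measured by micrometer.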

Test [8] in a line: In vitro heparin-mediated lengthening of APTT / clotting time of heparinized plasma. To be noted: FIG. 12g. The format is biochemical, human. Here is the method: In vitro, the effect of BPI combination functional domain peptides was determined on heparin-mediated lengthening of activated partial […] (APTT). The APTT is lengthened by the presence of endogenous or exogenous inhibitors of thrombin formation, such as therapeutically administered heparin. Thus, agents which neutralize the anti-coagulant effects of heparin will reduce the APTT measured by the test. Citrated human plasma (200 μL) was incubated for 1 minute at 37° C. with either 15 μL of diluent (0.15 M NaCl, 0.1 M Tris-HCl, pH 7.4) or 15 μL of the diluent also containing 25 μg/mL heparin (187 units/mg). Various concentrations (from 0.0 to 56 μg/mL) of rBPI23, rBPI21Δcys, or BPI combination peptides BPI.29 (the DIII homodimer) and BPI.30 (heterodimer DII+DIII) in a volume of 15 μL were added, followed immediately by 100 μL of thrombin reagent (Catalog No. 845-4, Sigma Chemical Co., St. Louis. MO). Clotting time ([…]) was measured using a BBL Fibrometer (Becton Dickenson Microbiology Systems, Cockeysville, Md.). […] FIG. 12e illustrates the results obtained with BPI.30 on a non-log scale.

The subject of test [9] is LPS-stimulated NO production by RAW 264.7 cells. The test can be described thus: LPS-stimulated NO production by RAW 264.7 cells. The format is cell-based, mouse. Here is the method: as §4
Test [10] is described as follows: Lipid A binding competition with [125I]-rLBP. To be noted: for IC50: read-out: IC50 (inhibition of Lipid A binding of radiolabeled rLBP). Here is the method: A second binding assay was developed, wherein radiolabeled recombinant LPS binding protein ([^125I]-rLBP) was used instead of radiolabeled rBPI23 in competition experiments with BPI functional domain peptides BPI.2, BPI.3, BPI.4, BPI.5, BPI.7, BPI.13, BPI.14, BPI.29, BPI.30 and BPI.48, rBPI, rBPI21Δcys, and rLBP25 were included in these assays as controls. In these experiments, Lipid A was adsorbed to the wells at a concentration of 0.7 μg/mL in methanol. Incubation of radiolabeled rLBP (a total of 650,000 cpm and a specific activity of 3.45 μCi/μg) was performed for 2.5 hr at 37° C. in the presence of BPI peptides in a series of increasing concentrations. IC50 values (i.e., the concentration at which Lipid A binding of radiolabeled rLBP25 is inhibited to one half the value achieved in the absence of the peptide) are shown in accompanying Table XI.

On to BPI 73 (IKISGKWKAQFRFLK), for which, in test [1], the “Quenching Heparin” value turned out to be 19%. Further, the Kd in test [1] (Stern-Volmer plots) was found to be 700 nM; in [2] (Stern-Volmer plots), 66 nM. In addition, in test [2], the “Quenching LPS” value was determined as 47%.
As to GTAALQKELKRIKIPDYSDSFKIKHLGKGH [BPI.14], in test [3], the “heparin binding capacity (in words)” value is “low heparin binding capacity”, the “Heparin Capacity” value is listed as 119.3 ng and the Kd was 396 nM. Also, the “inhibition of zymosan-stimulated NO production (in words)” value in test [4] is reported as “not inhibited”. In test [5], the “pmol added to well to achieve a 30 mm^2 bactericidal zone, E. coli O111:B4” value is on record as “b (no detectable activity up to 5 μg/well)”. Moreover, in [6], the “pmol added to well to achieve a 30 mm^2 bactericidal zone, S. aureus” value was “b (no detectable activity up to 5 μg/well)”. Also, in [7], the “bactericidal activity (in words)” value is recorded as “little or no bactericidal activity” and the “pmol added to well to achieve a 30 mm^2 bactericidal zone, E. coli J5” value is “b (no detectable activity up to 5 μg/well)”. For the same molecule, in test [8], the “effect on the clotting time of heparinized blood (in words)” value (“effect on the clotting time” for short) is listed as “less of a decrease in clotting times”.
Take LQKELKRIKIPDYSDSFKIKHL [BPI.4]: in test [3], the “heparin binding capacity (in words)” value is listed as “low heparin binding capacity”, the “Heparin Capacity” value is recorded as 80.8 ng and the Kd worked out at 336 nM. Moreover, the “inhibition of zymosan-stimulated NO production (in words)” value in [4] is “not inhibited”. The “pmol added to well to achieve a 30 mm^2 bactericidal zone, E. coli O111:B4” value in test [5] is on record as “b (no detectable activity up to 5 μg/well)”. The “pmol added to well to achieve a 30 mm^2 bactericidal zone, S. aureus” value in [6] was “b (no detectable activity up to 5 μg/well)”. In [7], the “bactericidal activity (in words)” value was “little or no bactericidal activity” and the “pmol added to well to achieve a 30 mm^2 bactericidal zone, E. coli J5” value is “b (no detectable activity up to 5 μg/well)”. Moreover, the “effect on the clotting time” value in test [8] was “less of a decrease in clotting times”.

B1: rLBP: recombinant lipopolysaccharide binding protein (LBP holoprotein) (protein, UniProt P18428 26-481, looked up)
Lipopolysaccharide-binding …: ANPGLVARITDKGLQYAAQEGLLALQSELLRITLPDFTGDLRIPHVGRGRYEFHSLNIHSCELLHSALRPVPGQGLSLSISDSSIRVQGRWKVRKSFFKLQGSFDVSVKGISISVNLLLGSESSGRPTVTASSCSSDIADVEVDMSGDLGWLLNLFHNQIESKFQKVLESRICEMIQKSVSSDLQPYLQTLPVTTEIDSFADIDYSLVEAPRATAQMLEVMFKGEIFHRNHRSPVTLLAAVMSLPEEHNKMVYFAISDYVFNTASLVYHEEGYLNFSITDDMIPPDSNIRLTTKSFRPFVPRLARLYPNMNLELQGSVPSAPLLNFSPGNLSVDPYMEIDAFVLLPSSSKEPVFRLSVATNVSATLTFNTSKITGFLKPGKVKVELKESKVGLFNAELLEALLNYYILNTFYPKFNDKLAEGFPLPLLKRVQLYDLGLQIHKDFLFLGANVQYMRV
On to B1, for which the “inhibition of zymosan-stimulated NO production (in words)” value in test [4] is given as “no significant inhibition”.

B2: rBPI: recombinant BPI holoprotein (SEQ ID NO:69) (protein)
chain: MRENMARGPCNAPRWVSLMVLVAIGTAVTAAVNPGVVVRISQKGLDYASQQGTAALQKELKRIKIPDYSDSFKIKHLGKGHYSFYSMDIREFQLPSSQISMVPNVGLKFSISNANIKISGKWKAQKRFLKMSGNFDLSIEGMSISADLKLGSNPTSGKPTITCSSCSSHINSVHVHISKSKVGWLIQLFHKKIESALRNKMNSQVCEKVTNSVSSKLQPYFQTLPVMTKIDSVAGINYGLVAPPATTAETLDVQMKGEFYSENHHNPPPFAPPVMEFPAAHDRMVYLGLSDYFFNTAGLVYQEAGVLKMTLRDDMIPKESKFRLTTKFFGTFLPEVAKKFPNMKIQIHVSASTPPHLSVQPTGLTFYPAVDVQAFAVLPNSSLASLFLIGMHTTGSMEVSAESNRLVGELKLDRLLLELKHSNIGPFPVELLQDIMNYIVPILVLPRVNEKLQKGFPLPTPARVQLYNVVLQPHQNFLLFGADVVYK
B2: in [4], the “inhibition of zymosan-stimulated NO production (in words)” value is listed as “no significant inhibition”. Moreover, the “inhibition of LPS-stimulated NO production (in words)” value in test [9] is given as “inhibited in a concentration-dependent manner”. Further, in test [10], the “IC50 (inhibition of Lipid A binding of radiolabeled rLBP)” value was found to be 0.65 µg/mL and the IC50 turned out to be 13 nM. Also, the “effect on the clotting time” value in [8] is “less of a decrease in clotting times”.

B3: rLBP25: LBP amino-terminal fragment, first 197 amino acids of lipopolysaccharide binding protein (protein)
chain: MGALARALPSILLALLLTSTPEALGANPGLVARITDKGLQYAAQEGLLALQSELLRITLPDFTGDLRIPHVGRGRYEFHSLNIHSCELLHSALRPVPGQGLSLSISDSSIRVQGRWKVRKSFFKLQGSFDVSVKGISISVNLLLGSESSGRPTVTASSCSSDIADVEVDMSGDLGWLLNLFHNQIESKFQKVLESRICEMIQKSVSSDLQPYLQTLPVTTEIDSFADIDYSLVEAPRATAQMLEVMFKGEIFHRNHRSPVTLLAAVMSLPEEHNKMVYFAISDYVFNTASLVYHEEGYLNFSITDEMIPPDSNIRLTTKSFRPFVPRLARLYPNMNLELQGSVPSAPLLNFSPGNLSVDPYMEIDAFVLLPSSSKEPVFRLSVATNVSATLTFNTSKITGFLKPGKVKVELKESKVGLFNAELLEALLNYYILNTFYPKFNDKLAEGFPLPLLKRVQLYDLGLQIHKDFLFLGANVQYMRV
Consider B3, for which, in [4], the “inhibition of zymosan-stimulated NO production (in words)” value is given as “No inhibition”. Moreover, the “inhibition of LPS-stimulated NO production (in words)” value in test [9] is “inhibited in a concentration-dependent manner”. Further, in test [10], the “IC50 (inhibition of Lipid A binding of radiolabeled rLBP)” value is 15 µg/mL and the IC50 turned out to be 600 nM. Also, the “effect on the clotting time” value in test [8] is “less of a decrease in clotting times”.

For orientation: IC50 means the concentration that inhibits the measured activity by half.
